Tests used:
Format in all cases: cell-based, human
[1] = test system: iPSC-derived RPE cells; assay: Sensitivity of iPSC-derived RPE cells to proteotoxic stressors in 384-well plates; details: conc. 10 μM, signals measured four days after the treatment, FIG. 29
Description: FIG. 29 is a bar graph showing the sensitivity of iPSC-derived RPE cells to various proteotoxic stressors. RPE cells differentiated from the reporter iPS cell line were grown in 384-well plates and treated with indicated stressors (conc. 10 μM). […] signals were measured four days after the treatment.

[2] = test system: iPSC-derived RPE; assay: Intracellular calcium measurements and electrophysiology of iPSC-derived RPE monolayers
Description: Intracellular Calcium Measurements and Electrophysiology: To assess calcium signaling in the RPE cells: ATP (200 μM; Sigma) and Cyclopiazonic Acid (CPA; 10 μM; EMD Millipore); (see Maminishkis et al., Invest. Ophthal. Vis. Sci. 47(8):3612-3624, 2006); Quinn et al., Invest. Ophthal. Vis. Sci. 33(13):3513-3527, 1992).
(§1) Calomel electrodes in series with Ringer solutions and agar bridges were used to measure the transepithelial potential (TEP). The signals from intracellular microelectrodes were referenced to the basal bath to measure the apical and basal membrane potentials, VA and VB, where TEP=VB−VA. The total transepithelial resistance (Rt), and the ratio of the apical to basolateral membrane resistance (RA/RB) were obtained by passing 2-4 μA current pulses (peak to peak) across the tissue and measuring the resultant changes in TEP, VA and VB. See Maminishkis et al. supra and Quinn et al., supra for details.

[3] = test system: iPSC derived retinal pigment epithelial cells; assay: Aphidicolin treatment of iPSC-derived RPE: polarization, electrophysiology and phenotype
Text: as §1
Aphidicolin is a reversible inhibitor of eukaryotic nuclear DNA replication that blocks the cell cycle at early S phase. Its structure is that of a tetracyclic small molecule. […] It causes committed RPE cells to further mature and form fully-differentiated and highly polarized tissue monolayers (see FIGS. 30-31). Aphidicolin is dissolved in fourth medium and RPE cells are cultured in it for 6-8 weeks before analysis is done.

[4] = test system: iPSCs; assay: RPE differentiation from iPSCs scored by pigmented cells
Description: Transfer cells to Retinal Media (RM) plus Nicotinamide, Activin, and Wnt3a (NAW). Change media every other day (eg. Mon, Wed, and Fri) for 3 weeks.
Next, the effect of the concentration of knockout serum replacement (KSR) on RPE differentiation was tested.
Activin A induces RPE differentiation from ES cells. In animal models, canonical WNT (WNT3a) is important for RPE differentiation. It was hypothesized that a combination of activin A and WNT3a would be effective for the induction of RPE differentiation from iPSCs. A combination of these two factors was tested at the optic vesicle stage. Cells were moved from the RDM medium to medium containing either activin A (NA) only or activin A plus WNT3a (NAW). […] Because this differentiation process was started with the reporter iPSC lines, the increase in the number of RPE cell was confirmed by comparing the GFP signal between the two treatments. […] When quantified by FACS analysis, NA treatment produced only 22% GFP positive cells, whereas NAW treatment produced 52% GFP positive cells (FIG. 17, bottom panel).

[5] = test system: reporter iPSC line; assay: GFP reporter signal / FACS analysis of RPE differentiation from reporter iPSC line; details: NAW versus NA, FIG. 17
Text: To optimize the protocol for iPSC to RPE differentiation, a reporter iPSC line was created. This reporter line constitutively expresses a red fluorescent protein, whose expression is controlled by ubiquitin gene promoter. The reporter iPSC line also expresses a green fluorescent protein (GFP), specifically when differentiated in to RPE lineage (FIG. 1-3). The RPE-specific enhancer of the gene Tyrosinase controls GFP expression in this iPSC line (FIG. 1). The first goal was to confirm that the GFP expression truly represents RPE lineage. To achieve this, iPSC line were differentiated using published differentiation protocols and characterized those differentiated cells using molecular and physiological assays. These assays are disclosed in FIGS. 22-24. FIG. 2 describes a simple schematic drawing of iPSC-RPE differentiation. When the reporter iPSC were differentiated into RPE, approximately 28 days into differentiation, GFP positive cells are present (FIG. 3A). […] GFP positive and negative cells were sorted by flow cytometry and the expression of several RPE-specific genes was analyzed, shown in FIG. 4.
Activin A induces RPE differentiation from ES cells. […] When quantified by FACS analysis, NA treatment produced only 22% GFP positive cells, whereas NAW treatment produced 52% GFP positive cells (FIG. 17, bottom panel).

[6] = test system: iPSCs; assay: Quantitative gene expression of Pax6 and Mitf during eye-field/optic vesicle differentiation; details: 50 ng/ml Noggin with dual inhibition of WNT pathway and inhibition of FGF pathway
Description: After 48 hours of floating EB cultures they are plated onto MATRIGEL® coated plates in RDM medium. It was investigated whether the number of EBs plated/well affects differentiation of iPSCs into RPE. […] RDM medium was used for 3 weeks with change of medium on cells every Monday, Wednesday, and Friday Inhibition of Nodal, BMP, and WNT pathways can be important for differentiation of stem cells into eye-field cells. To inhibit the nodal pathway, the inhibitor SB431542 was used. To inhibit the activity of BMP pathway, various concentrations of Noggin, a BMP inhibitor, were tested. For WNT pathway inhibition, a combination of biological Wnt inhibitor DKK1 and a small molecule inhibitor of the WNT pathway CK1-7 were used.
Results have shown that inhibition of FGF signaling is important for RPE development. Therefore, the activity of FGF signaling pathway was modulated by either changing its concentration or/and by adding FGF inhibitor (PD 0325901) to the medium. The results were scored weekly by quantitative gene expression measurements of two transcription factors Pax6 and Mitf which are the master regulators of RPE differentiation (FIGS. 8-13). In addition, GFP expression was scored after six weeks as a direct measure of induction of RPE cells (FIG. 14).

[7] = aphidicolin treated RPE cells, FIG. 31

Question: For `O=CC[C@@H](O)[C@H](O)[C@H](O)CO` [2-Deoxy-D-Glucose], which “effect on RPE phenotype (GFP signal)” value [1] is on record?
Answer: The value was “affected RPE phenotype”.

Question: `CNc1ccc2oc(C[C@H]3O[C@@]4(CC[C@H]3C)O[C@H]([C@H](C)C(=O)c3ccc[nH]3)[C@H](C)C[C@H]4C)nc2c1C(=O)O` [A23187] was tested. Which “effect on RPE phenotype (GFP signal)” value [1] did it give?
Answer: Its value is “affected RPE phenotype”.

Question: For `Nc1ncnc2c1ncn2[C@@H]1O[C@H](COP(=O)(O)OP(=O)(O)OP(=O)(O)O)[C@@H](O)[C@H]1O` [ATP], which intracellular calcium response ([2]; apical application, FIG. 26C) is on record?
Answer: Its intracellular calcium response is “typical bi-phasic response”.

Question: And the “basolateral membrane potential response” value ([2]; applied to the apical membrane, FIG. 26D)?
Answer: The value was “significantly depolarizes the basolateral membrane”.

Question: For `C[C@@]1(CO)[C@H](O)CC[C@@]2(C)[C@H]1CC[C@H]1C[C@@H]3C[C@@]12CC[C@]3(O)CO` [Aphidicolin], which membrane potential [3, 7] is on record?
Answer: The membrane potential was “higher”.

Question: What about the “physiological responses (hyperpolarization to low potassium or ATP on the apical side)” value [3, 7] of the same molecule?
Answer: Its value is “better physiological responses”.

Question: And the transepithelial resistance [3, 7]?
Answer: The transepithelial resistance was “higher”.

Question: What about the “apical process / polarization of RPE cells” value ([3]; compared to non-treated cells, FIG. 30) of the same molecule?
Answer: The value was “more extensive apical process”.

Question: What about the “RPE phenotype of iPS cell derived RPE on artificial membranes/scaffolds” value ([3]; cultured 6-8 weeks in fourth medium with aphidicolin) of the same molecule?
Answer: The value was “improves their RPE phenotype”.

Question: `C/C=C(/C)C(=O)O[C@H]1C(C)=C2[C@H]([C@@H]1OC(=O)CCCCCCC)[C@@](C)(OC(C)=O)C[C@H](OC(=O)CCC)[C@@]1(O)[C@H]2OC(=O)[C@@]1(C)O` [Thapsigargin] was tested. Which “effect on RPE phenotype (GFP signal)” value [1] did it give?
Answer: Its value is “affected RPE phenotype”.

B1: WNT3a: canonical WNT signaling regulator (protein, UniProt P56704 19-352, looked up)
Protein Wnt-3a: SYPIWWSLAVGPQYSSLGSQPILCASIPGLVPKQLRFCRNYVEIMPSVAEGIKIGIQECQHQFRGRRWNCTTVHDSLAIFGPVLDKATRESAFVHAIASAGVAFAVTRSCAEGTAAICGCSSRHQGSPGKGWKWGGCSEDIEFGGMVSREFADARENRPDARSAMNRHNNEAGRQAIASHMHLKCKCHGLSGSCEVKTCWWSQPDFRAIGDFLKDKYDSASEMVVEKHRESRGWVETLRPRYTYFKVPTERDLVYYEASPNFCEPNPETGSFGTRDRTCNVSSHGIDGCDLLCCGRGHNARAERRREKCRCVFHWCCYVSCQECTRVYDVHTCK
Question: Which “number of pigmented cells per dish” value ([4]; activin A plus WNT3a (NAW) versus activin A only (NA), FIG. 16) does the source give for B1 here?
Answer: The value was “significantly increased the number of pigmented cells per dish”.

Question: What about the RPE differentiation efficiency ([4]; addition of WNT3a to Retinal Media with Nicotinamide and Activin) of the same molecule?
Answer: Its RPE differentiation efficiency is “significantly increased the RPE differentiation efficiency”.

Question: And the “number of GFP positive cells in differentiating iPSC cultures” value [5]?
Answer: The value was “significantly increases the number of GFP positive cells”.

B2: Noggin: a BMP inhibitor, protein encoded by the NOG gene (protein, UniProt Q13253 28-232, looked up)
Noggin: QHYLHIRPAPSDNLPLVDLIEHPDPIFDPKEKDLNETLLRSLLGGHYDPGFMATSPPEDRPGGGGGAAGGAEDLAELDQLLRQRPSGAMPSEIKGLEFSEGLAQGKKQRLSKKLRRKLQMWLWSQTFCPVLYAWNDLGSRFWPRYVKVGSCFSKRSCSVPEGMVCKPSKSVHLTVLRWRCQRRGGQRCGWIPIQYPIISECKCSC
Question: How did the “expression of Pax6 and Mitf during the three weeks” value [6] turn out when B2 was run?
Answer: The value was “significantly and progressively improve the expression of Pax6 and Mitf”.

Source: patent publication US12674204B2, “Method for generating retinal pigment epithelium (RPE) cells from induced pluripotent stem cells (iPSCs)” (THE UNITED STATES OF AMERICA, as represented by the …, priority 2013, dated 2026)
